1 molecule from the supplement of paper PMC12076712 can be followed below.

± gives the standard deviation of the averaged measurements.

Holding throughout (experiment): pIC50, kinobeads binding competition
What all share (settings): cell material: Jurkat lysate

In assay [1] the target is T1, UniProt O15111.
T1 sequence (whole entry): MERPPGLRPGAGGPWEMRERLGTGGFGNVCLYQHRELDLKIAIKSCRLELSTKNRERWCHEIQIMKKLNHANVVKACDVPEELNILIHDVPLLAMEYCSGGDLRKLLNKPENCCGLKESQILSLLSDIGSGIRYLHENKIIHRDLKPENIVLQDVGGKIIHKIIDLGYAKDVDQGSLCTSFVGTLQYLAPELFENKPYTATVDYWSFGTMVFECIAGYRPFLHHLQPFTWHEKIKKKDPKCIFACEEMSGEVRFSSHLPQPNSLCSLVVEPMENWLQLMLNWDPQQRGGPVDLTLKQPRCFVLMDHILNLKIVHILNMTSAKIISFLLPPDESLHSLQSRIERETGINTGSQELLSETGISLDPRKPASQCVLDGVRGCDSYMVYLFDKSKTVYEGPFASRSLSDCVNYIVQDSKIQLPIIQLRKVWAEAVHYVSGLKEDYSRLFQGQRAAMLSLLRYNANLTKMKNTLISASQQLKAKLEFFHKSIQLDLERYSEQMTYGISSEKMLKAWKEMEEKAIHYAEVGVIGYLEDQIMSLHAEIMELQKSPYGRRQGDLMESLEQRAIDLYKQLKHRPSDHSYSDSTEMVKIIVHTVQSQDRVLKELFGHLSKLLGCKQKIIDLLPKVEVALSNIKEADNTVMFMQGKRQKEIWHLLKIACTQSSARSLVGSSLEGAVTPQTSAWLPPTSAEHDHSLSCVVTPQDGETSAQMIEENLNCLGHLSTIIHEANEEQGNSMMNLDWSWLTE

Assay [2] has as its target UniProt Q13233.
In assay [3] the target is UniProt Q13164.
The target of assay [4] is UniProt Q9H0K1.
The target of assay [5] is T2, UniProt Q8TF76.
T2 sequence (whole entry): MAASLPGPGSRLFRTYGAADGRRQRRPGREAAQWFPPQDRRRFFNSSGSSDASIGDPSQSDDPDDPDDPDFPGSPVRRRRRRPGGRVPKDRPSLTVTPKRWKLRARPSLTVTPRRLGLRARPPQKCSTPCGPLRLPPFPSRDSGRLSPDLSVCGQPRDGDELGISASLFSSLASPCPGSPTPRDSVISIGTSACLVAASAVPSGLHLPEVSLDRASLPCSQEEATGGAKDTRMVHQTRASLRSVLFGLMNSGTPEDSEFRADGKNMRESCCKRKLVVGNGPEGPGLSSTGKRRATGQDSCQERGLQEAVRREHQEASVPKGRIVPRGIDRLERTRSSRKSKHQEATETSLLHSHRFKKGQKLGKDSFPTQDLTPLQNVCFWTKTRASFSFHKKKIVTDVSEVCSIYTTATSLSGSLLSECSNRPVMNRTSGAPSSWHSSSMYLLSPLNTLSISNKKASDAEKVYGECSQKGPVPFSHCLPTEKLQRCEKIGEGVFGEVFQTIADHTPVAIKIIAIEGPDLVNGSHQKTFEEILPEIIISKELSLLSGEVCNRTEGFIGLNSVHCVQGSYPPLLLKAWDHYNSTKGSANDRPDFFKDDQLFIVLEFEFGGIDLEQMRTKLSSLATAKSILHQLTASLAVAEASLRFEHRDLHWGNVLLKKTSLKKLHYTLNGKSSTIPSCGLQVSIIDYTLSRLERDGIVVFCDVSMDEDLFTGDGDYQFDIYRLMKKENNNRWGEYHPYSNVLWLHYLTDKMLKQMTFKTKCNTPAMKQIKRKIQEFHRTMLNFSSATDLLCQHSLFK

The target of assay [6] is ABL2 (UniProt P42684).
Assay [7] has as its target T3, UniProt P46734.
T3 sequence (whole entry): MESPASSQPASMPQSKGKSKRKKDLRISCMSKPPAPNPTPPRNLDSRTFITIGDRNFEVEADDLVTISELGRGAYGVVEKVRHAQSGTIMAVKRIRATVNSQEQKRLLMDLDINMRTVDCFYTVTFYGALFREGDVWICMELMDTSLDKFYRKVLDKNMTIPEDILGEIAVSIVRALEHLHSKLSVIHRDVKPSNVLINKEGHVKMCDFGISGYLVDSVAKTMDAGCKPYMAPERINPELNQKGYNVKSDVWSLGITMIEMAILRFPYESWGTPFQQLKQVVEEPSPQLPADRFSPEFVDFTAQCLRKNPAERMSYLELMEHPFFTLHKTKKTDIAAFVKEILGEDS

The target of assay [8] is T4, UniProt O94768.
T4 sequence (whole entry): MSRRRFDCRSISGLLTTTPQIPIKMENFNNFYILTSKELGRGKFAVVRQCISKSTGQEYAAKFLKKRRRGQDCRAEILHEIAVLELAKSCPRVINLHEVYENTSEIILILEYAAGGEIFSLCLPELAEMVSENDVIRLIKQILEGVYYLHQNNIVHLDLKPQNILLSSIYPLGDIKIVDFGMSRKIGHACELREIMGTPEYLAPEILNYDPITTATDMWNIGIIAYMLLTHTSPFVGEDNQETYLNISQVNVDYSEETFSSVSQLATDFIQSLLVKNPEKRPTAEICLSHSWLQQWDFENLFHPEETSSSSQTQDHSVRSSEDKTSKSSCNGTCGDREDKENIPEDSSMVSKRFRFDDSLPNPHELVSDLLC

Assay [9] has as its target UniProt Q14004.
Assay [10] concerns the target UniProt Q5VT25.
The target of assay [11] is UniProt O75582.
Assay [12] concerns the target SLK (UniProt Q9H2G2).
Assay [13] concerns the target UniProt Q5TCX8.
In assay [14] the target is CDK10 (UniProt Q15131).
The target in assay [15] is UniProt P19525.
In assay [16] the target is HIPK3 (UniProt Q9H422).
The target in assay [17] is AKT1 (UniProt P31749).
Assay [18] concerns the target UniProt Q13557.

UniProt Q5TCX8, sequence (Q5TCX8 whole entry): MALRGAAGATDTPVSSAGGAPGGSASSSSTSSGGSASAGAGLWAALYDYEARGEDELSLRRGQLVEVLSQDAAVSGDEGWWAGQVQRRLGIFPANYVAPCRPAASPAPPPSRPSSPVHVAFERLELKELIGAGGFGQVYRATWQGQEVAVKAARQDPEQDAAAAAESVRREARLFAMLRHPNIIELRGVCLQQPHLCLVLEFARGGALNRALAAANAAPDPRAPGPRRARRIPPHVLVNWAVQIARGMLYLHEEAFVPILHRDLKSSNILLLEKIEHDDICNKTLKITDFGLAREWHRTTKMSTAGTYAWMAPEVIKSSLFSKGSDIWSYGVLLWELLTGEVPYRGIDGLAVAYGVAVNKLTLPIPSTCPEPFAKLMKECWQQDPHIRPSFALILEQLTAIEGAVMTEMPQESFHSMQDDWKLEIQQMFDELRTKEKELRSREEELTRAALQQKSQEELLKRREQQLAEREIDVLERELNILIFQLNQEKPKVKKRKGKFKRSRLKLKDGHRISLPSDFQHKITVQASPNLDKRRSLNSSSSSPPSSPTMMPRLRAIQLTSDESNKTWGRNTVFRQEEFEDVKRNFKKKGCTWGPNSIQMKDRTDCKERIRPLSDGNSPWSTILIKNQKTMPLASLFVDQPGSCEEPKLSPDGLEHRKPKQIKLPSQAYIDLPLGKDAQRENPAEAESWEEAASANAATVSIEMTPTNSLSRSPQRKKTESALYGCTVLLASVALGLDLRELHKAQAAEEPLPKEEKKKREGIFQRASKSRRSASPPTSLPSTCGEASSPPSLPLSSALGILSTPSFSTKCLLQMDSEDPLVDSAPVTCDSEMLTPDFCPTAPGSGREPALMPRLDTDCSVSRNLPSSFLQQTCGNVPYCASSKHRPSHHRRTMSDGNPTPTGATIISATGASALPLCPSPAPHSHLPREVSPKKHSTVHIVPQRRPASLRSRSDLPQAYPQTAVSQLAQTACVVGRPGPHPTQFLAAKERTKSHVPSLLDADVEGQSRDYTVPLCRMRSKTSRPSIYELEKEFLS
UniProt Q13557, sequence (Q13557 whole entry): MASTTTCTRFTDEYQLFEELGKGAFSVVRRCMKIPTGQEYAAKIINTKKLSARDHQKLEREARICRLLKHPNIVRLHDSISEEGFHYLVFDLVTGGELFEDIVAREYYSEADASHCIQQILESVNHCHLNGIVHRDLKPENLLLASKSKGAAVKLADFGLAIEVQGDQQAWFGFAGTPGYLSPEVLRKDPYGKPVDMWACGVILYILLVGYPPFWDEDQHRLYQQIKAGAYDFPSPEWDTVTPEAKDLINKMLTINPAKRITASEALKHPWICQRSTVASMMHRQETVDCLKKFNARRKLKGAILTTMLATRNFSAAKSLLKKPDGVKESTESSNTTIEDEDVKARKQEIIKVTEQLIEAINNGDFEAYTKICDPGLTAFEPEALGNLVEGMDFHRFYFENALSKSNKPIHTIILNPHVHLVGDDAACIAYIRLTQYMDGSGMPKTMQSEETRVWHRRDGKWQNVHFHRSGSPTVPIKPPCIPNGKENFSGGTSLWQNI
UniProt Q9H0K1, sequence (Q9H0K1 whole entry, looked up): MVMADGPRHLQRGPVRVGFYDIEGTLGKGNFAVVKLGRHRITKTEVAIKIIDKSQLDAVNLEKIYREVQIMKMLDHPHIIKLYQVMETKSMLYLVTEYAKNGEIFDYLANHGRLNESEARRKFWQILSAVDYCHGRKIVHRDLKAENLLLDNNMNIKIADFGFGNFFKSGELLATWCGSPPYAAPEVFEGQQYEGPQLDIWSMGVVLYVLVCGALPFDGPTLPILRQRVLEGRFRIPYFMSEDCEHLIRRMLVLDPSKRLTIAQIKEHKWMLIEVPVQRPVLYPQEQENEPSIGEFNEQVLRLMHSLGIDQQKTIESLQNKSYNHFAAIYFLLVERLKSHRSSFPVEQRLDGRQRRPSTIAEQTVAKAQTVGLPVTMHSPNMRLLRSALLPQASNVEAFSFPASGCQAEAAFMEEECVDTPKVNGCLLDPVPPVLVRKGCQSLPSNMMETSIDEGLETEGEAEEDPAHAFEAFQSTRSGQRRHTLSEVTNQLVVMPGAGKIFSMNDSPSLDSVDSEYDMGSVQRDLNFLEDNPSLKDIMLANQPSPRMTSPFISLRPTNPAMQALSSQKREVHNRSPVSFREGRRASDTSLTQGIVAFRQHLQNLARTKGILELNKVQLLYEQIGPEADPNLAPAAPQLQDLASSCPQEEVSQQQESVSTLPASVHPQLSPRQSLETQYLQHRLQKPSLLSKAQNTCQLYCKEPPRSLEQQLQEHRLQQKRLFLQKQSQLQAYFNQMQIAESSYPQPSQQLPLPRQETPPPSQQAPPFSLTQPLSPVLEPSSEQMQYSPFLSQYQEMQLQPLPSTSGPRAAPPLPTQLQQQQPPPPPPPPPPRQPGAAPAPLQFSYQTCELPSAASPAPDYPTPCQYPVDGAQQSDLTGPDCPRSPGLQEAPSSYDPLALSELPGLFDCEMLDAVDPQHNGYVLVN
ABL2, sequence (P42684 whole entry): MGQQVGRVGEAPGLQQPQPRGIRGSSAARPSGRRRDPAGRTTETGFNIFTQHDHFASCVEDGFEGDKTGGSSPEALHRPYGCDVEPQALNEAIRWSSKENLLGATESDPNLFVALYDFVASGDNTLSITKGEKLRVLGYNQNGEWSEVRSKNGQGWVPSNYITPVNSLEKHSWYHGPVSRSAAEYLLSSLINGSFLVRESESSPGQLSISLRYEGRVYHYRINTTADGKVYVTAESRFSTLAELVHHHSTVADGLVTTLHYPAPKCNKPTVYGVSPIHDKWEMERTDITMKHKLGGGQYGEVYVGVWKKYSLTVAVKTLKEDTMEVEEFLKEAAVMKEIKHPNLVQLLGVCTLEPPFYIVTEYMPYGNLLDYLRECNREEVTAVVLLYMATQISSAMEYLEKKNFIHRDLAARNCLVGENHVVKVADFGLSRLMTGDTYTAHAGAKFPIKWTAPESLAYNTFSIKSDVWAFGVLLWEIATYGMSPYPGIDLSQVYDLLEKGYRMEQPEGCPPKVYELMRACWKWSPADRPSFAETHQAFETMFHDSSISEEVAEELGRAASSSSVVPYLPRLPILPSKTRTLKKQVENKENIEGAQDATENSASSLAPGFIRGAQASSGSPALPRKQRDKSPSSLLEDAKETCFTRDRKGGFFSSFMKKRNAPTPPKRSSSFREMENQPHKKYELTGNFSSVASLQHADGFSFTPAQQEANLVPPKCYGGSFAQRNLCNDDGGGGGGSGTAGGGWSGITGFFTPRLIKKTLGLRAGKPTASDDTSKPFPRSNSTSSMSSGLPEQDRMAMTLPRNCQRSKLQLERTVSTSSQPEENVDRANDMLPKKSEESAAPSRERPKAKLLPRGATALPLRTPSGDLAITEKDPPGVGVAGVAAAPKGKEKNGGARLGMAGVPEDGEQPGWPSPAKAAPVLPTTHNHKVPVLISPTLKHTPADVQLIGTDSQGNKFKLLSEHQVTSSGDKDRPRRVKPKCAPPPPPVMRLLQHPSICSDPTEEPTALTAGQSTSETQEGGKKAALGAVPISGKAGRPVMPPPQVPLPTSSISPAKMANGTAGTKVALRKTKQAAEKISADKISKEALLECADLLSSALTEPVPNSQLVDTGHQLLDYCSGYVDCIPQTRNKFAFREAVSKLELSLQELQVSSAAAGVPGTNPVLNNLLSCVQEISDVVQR
UniProt P19525, sequence (P19525 whole entry): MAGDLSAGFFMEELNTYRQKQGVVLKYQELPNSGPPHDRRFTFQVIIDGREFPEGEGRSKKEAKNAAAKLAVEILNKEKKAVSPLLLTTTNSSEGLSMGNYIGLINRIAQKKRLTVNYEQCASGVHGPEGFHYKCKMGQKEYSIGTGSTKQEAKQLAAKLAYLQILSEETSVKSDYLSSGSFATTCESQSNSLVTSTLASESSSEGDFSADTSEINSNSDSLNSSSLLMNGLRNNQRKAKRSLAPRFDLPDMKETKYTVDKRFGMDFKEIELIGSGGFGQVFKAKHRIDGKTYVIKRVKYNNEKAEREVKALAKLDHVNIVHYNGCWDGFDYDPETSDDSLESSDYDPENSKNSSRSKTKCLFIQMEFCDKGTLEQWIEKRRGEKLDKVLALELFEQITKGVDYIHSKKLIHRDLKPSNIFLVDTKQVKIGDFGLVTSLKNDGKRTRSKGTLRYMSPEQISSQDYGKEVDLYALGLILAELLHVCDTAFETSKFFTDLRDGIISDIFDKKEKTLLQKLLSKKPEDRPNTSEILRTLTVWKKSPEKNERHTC
UniProt O75582, sequence (O75582 whole entry, looked up): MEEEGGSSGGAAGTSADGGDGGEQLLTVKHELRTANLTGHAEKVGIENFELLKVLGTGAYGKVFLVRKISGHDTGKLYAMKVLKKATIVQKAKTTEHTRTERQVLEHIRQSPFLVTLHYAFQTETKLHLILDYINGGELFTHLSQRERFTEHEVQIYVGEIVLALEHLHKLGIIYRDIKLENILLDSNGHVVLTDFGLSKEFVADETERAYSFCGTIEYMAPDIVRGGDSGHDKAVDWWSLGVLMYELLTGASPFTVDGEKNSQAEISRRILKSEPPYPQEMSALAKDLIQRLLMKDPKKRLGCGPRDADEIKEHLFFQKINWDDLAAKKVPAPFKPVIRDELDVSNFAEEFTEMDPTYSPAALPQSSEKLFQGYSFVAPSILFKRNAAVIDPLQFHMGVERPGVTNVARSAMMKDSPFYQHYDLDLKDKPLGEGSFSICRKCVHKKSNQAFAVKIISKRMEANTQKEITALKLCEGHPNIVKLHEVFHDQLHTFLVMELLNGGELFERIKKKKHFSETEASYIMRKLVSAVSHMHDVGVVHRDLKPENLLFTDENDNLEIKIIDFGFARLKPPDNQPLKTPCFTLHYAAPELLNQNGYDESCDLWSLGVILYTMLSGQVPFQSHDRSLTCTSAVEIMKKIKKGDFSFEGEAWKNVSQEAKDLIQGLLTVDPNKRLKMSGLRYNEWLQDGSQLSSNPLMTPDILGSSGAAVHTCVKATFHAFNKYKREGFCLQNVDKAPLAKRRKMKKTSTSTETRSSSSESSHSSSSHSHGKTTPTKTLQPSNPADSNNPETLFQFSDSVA

As usually defined, the pIC50 is −log10 of the IC50, conventionally taken in molar units. Lower therefore signals a high IC50. As for `CCc1cnn2c(NCc3ccc[n+]([O-])c3)cc(N3CCCC[C@H]3CCO)nc12` [dinaciclib], the negative logarithm of the IC50 (pIC50) in assay [1], in [2], in assay [3], in assay [4], in assay [5] and in assay [6] was less than 4.52 throughout. In addition, the negative-log IC50 (pIC50) in assay [7] was less than 4.52; in assay [8] it was less than 4.52; in assay [9] it was 7.42 ± 0.28; in [10] it was less than 4.52; in [11], less than 4.52; in assay [12], less than 4.52. Moreover, the pIC50 in assay [13] was less than 4.52; in assay [14], 7.86 ± 0.31; in assay [15], less than 4.52; in assay [16] it was less than 4.52; in assay [17] it was less than 4.52; in assay [18], less than 4.52.
